Data reported in ChEMBL document CHEMBL5236635, “Structure-Based Drug Design and Synthesis of Novel N-Aryl-2,4-bithiazole-2-amine CYP1B1-Selective Inhibitors in Overcoming Taxol Resistance in A549 Cells” (J Med Chem, 2022).
Blank lines part the entries; values can stand above or below the compound they belong to. Calls of active or inactive are those of the source. The rule behind the calls is not given here.

Experiments:
NCI-H460 [1] = experiment: Inhibition of DMBA-induced CYP1B1 expression level in human NCI-H460 cells at 5 uM incubated for 24 hrs; assay type: functional, cell-based
NCI-H460 [2] = experiment: Inhibition of DMBA-induced CYP1B1 overexpression in human NCI-H460 cells assessed as increase in SRC level incubated for 24 hrs by densitometry analysis; assay type: functional, cell-based; conditions: dose 5.0 µM
A549 [3] = experiment: Inhibition of DMBA-induced CYP1B1 overexpression in human A549 cells assessed as increase in Paxillin level incubated for 24 hrs by densitometry analysis; assay type: functional, cell-based; conditions: dose 5.0 µM
NCI-H460 [4] = experiment: Inhibition of DMBA-induced CYP1B1 overexpression in human NCI-H460 cells assessed as increase in Paxillin level incubated for 24 hrs by densitometry analysis; assay type: functional, cell-based; conditions: dose 5.0 µM
A549 [5] = experiment: Inhibition of DMBA-induced CYP1B1 overexpression in human A549 cells assessed as supression of FAK pathway at 5 uM incubated for 24 hrs by densitometry analysis; assay type: functional, cell-based
A549 [6] = experiment: Inhibition of cell migration in DMBA-induced human A549 cells at 5 uM incubated for 48 hrs by inverted microscopic analysis; assay type: functional, cell-based
A549 [7] = experiment: Inhibition of cell invasion in DMBA-induced human A549 cells at 5 uM by optical microscopic analysis; assay type: functional, cell-based
A549 [8] = experiment: Inhibition of DMBA-induced CYP1B1 overexpression in human A549 cells assessed as increase in snail level incubated for 24 hrs by densitometry analysis; assay type: functional, cell-based; conditions: dose 5.0 µM
A549 [9] = experiment: Inhibition of DMBA-induced CYP1B1 overexpression in human A549 cells assessed as increase in Vimentin level incubated for 24 hrs by densitometry analysis; assay type: functional, cell-based; conditions: dose 5.0 µM
NCI-H460 [10] = experiment: Inhibition of DMBA-induced CYP1B1 overexpression in human NCI-H460 cells assessed as decrease in E-cadherin level incubated for 24 hrs by densitometry analysis; assay type: functional, cell-based; conditions: dose 5.0 µM
A549/TR [11] = experiment: Reversal of taxol resistance in human A549/Taxol cells assessed as increase in Rho123 accumulation at 5 uM incubated for 20 mins by multimode plate reader analysis; assay type: functional, cell-based
Cytochrome P450 1B1 = target: T1, Cytochrome P450 1B1 (Homo sapiens, UniProt Q16678); experiment: Inhibition of recombinant human CYP1B1 using 7-ethyl-0-resorufin as substrate incubated for 30 mins in presence of NADPH by EROD assay
T1 sequence (Q16678 whole entry): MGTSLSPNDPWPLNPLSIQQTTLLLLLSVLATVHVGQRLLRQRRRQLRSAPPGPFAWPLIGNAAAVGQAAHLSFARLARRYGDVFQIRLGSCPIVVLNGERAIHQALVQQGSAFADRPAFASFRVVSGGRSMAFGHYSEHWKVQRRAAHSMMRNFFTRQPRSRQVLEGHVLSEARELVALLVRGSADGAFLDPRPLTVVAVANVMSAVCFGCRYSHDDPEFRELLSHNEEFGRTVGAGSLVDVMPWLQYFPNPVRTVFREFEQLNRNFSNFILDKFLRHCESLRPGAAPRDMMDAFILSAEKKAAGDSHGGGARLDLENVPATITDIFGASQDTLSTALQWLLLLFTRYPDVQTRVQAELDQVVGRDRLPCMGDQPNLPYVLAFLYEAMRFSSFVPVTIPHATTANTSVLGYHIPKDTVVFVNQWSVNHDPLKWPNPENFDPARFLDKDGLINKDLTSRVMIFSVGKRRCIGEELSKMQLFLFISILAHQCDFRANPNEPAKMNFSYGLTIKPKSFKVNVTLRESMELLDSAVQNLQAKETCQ

Cytochrome P450 1A1 = target: T2, Cytochrome P450 1A1 (Homo sapiens, UniProt P04798); experiment: Inhibition of recombinant human CYP1A1 using 7-ethyl-0-resorufin as substrate incubated for 30 mins in presence of NADPH by EROD assay
T2 sequence (P04798 whole entry): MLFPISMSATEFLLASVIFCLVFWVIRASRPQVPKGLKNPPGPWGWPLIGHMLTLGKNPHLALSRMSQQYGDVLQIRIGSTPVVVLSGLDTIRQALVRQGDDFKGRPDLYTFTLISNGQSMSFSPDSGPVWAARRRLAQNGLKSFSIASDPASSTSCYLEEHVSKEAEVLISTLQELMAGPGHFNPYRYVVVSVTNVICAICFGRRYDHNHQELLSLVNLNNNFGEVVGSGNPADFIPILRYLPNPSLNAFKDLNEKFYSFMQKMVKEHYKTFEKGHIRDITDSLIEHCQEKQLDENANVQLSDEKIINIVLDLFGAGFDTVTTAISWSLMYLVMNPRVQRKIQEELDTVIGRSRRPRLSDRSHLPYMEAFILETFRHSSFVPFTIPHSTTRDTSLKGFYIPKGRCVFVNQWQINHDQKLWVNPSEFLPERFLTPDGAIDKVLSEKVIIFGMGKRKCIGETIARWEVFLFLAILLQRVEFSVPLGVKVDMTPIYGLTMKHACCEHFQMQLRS

A549/TR [12] = experiment: Synergistic antiproliferative activity against human A549/Taxol cells assessed as increase in taxol by measuring combination index at 3.75 uM incubated for 72 hrs in presence of 0.06 uM taxol by MTT assay; assay type: functional
A549/TR [13] = experiment: Synergistic antiproliferative activity against human A549/Taxol cells assessed as increase in taxol by measuring combination index at 3.75 uM incubated for 72 hrs in presence of 0.13 uM taxol by MTT assay; assay type: functional
A549/TR [14] = experiment: Synergistic antiproliferative activity against human A549/Taxol cells assessed as increase in taxol by measuring combination index at 7.50 uM incubated for 72 hrs in presence of 0.25 uM taxol by MTT assay; assay type: functional; conditions: dose 7.5 µM
A549/TR [15] = experiment: Synergistic antiproliferative activity against human A549/Taxol cells assessed as increase in taxol by measuring combination index at 7.50 uM incubated for 72 hrs in presence of 1 uM taxol by MTT assay; assay type: functional; conditions: dose 7.5 µM
A549/TR [16] = experiment: Synergistic antiproliferative activity against human A549/Taxol cells assessed as increase in taxol by measuring combination index at 15 uM incubated for 72 hrs in presence of 0.13 uM taxol by MTT assay; assay type: functional
A549/TR [17] = experiment: Synergistic antiproliferative activity against human A549/Taxol cells assessed as increase in taxol by measuring combination index at 30 uM incubated for 72 hrs in presence of 1 uM taxol by MTT assay; assay type: functional
A549/TR [18] = experiment: Reversal of taxol resistance in human A549/Taxol cells assessed as suppression of P-gp expression level at 2.5 to 10 uM incubated for 20 mins by multimode plate reader analysis; assay type: functional, cell-based; conditions: dose 2.5-10 µM
A549/Taxol = experiment: Inhibition of AKT pathway in human A549/Taxol cells assessed as decrease in phosphorylated AKT level at 2.5 to 5 uM incubated for 24 hrs; assay type: cell-based; conditions: dose 2.5-5 µM
A549/TR [19] = experiment: Upregulation of E-cadherin expression level in human A549/Taxol cells at 2.5 to 10 uM incubated for 24 hrs by densitometry analysis; assay type: functional, cell-based; conditions: dose 2.5-10 µM

SMILES: COc1cc(/C=C/c2ccc(OC)cc2OC)cc(OC)c1
inhibition (NCI-H460 [1]): Active | inhibition (NCI-H460 [2]): Dose-Dependent Effect | inhibition (A549 [3]): Dose-Dependent Effect | inhibition (NCI-H460 [4]): Dose-Dependent Effect | inhibition (A549 [5]): Active | inhibition (A549 [6]): Active | inhibition (A549 [7]): Active | inhibition (A549 [8]): Dose-Dependent Effect | inhibition (A549 [9]): Dose-Dependent Effect | inhibition (NCI-H460 [10]): Dose-Dependent Effect | Activity (A549/TR [11]): Active

IC50 (Cytochrome P450 1B1): 6.6 nM | IC50 (Cytochrome P450 1A1): 347 nM
SMILES: COc1cc(Nc2nc(-c3nc(-c4ccccc4F)cs3)cs2)cc(OC)c1
CI (A549/TR [12]): 0.64 | CI (A549/TR [13]): 0.55 | CI (A549/TR [14]): 0.47 | CI (A549/TR [15]): 1.36 | CI (A549/TR [16]): 0.22 | CI (A549/TR [17]): 0.02 | Activity (A549/TR [18]): Active | inhibition (A549/Taxol): Active | Activity (A549/TR [19]): Active
